Results on two molecules are retold here after patent publication US11415571B2, “Large scale organoid analysis” (Tempus Labs, Inc., priority 2019, dated 2022).

Assay [1] relates to second lung cancer tumor organoid line. Put plainly: high throughput tumor organoid drug screen, per-organoid viability histogram. How it is done:
(§1) TOs were dissociated as described above and resuspended in a 30:70% mix of GFR Matrigel:growth media at a concentration of 100 cells/μl. The solution was added to 384-well assay plates (Corning) at 20 μl per well for a final concentration of 2,000 cells per well. Assay plates were covered with a Breathe-Easy sealing membrane (Sigma Aldrich) to prevent evaporation. TOs were grown for 72 hours before drug addition. Drugs were prepared in growth media with 2.5 μM Caspase-3/7 Green Apoptosis Assay Reagent (Essen Bioscience). Serial dilutions of each molecule were prepared in 384-well polystyrene plates (Nunc). Diluted drug was added to the assay plate using an Integra Viaflo pipette (Integra) mounted on an Integra Assist Plus Pipetting Robot (Integra). Assay plates were again covered with a Breathe-Easy sealing membrane and TOs were exposed to drugs for another 72 hours before imaging.
(§2) Prior to imaging, TOs were incubated with 4 μM Hoechst 33342 (Fisher Scientific) and 300 nM TO-PRO-3 Iodide (642/661) (Invitrogen) for 1.5-2 hours. Assay plates were imaged using an ImageXpress Micro Confocal (Molecular Devices) at 10× magnification so that ˜100-200 TOs were imaged per well. Images were acquired as 4×15 μm Z-stacks and the 2D projections were analyzed to assess cell viability. Confocal images were analyzed using the MetaXpress software (Molecular Devices) custom module editor feature to design an analysis module that identified TOs by clusters of Hoechst 33342 staining, individual cells by Hoechst 33342 staining, and dead/dying cells by either TO-PRO-3 or Caspase-3/7 staining. The result of this analysis module is a spreadsheet detailing the number of live and dead cells for every individual organoid.
(§3) The percentage of viable cells per organoid was calculated based on the image analysis described above. Organoids with fewer than three cells and larger than the top one percent by size were excluded from analysis. The mean viability for all organoids at a given drug concentration was used in dose-response curves to calculate AUC. AUC was calculated using the computeAUC function using settings for “actual” AUC of the R Package PharmacoGx (v1.17.1). Heatmaps of AUC values were generated using the Pheatmap package (v1.0.12) in R. Scatterplots of AUC values were generated using the ggplot2 package (v3.3.0) in R.
(§4) In this example, data for each therapy is presented as a histogram. […] Viability was determined by the systems and methods disclosed above.
(§5) Each tumor organoid line in these examples was cultured individually in wells of a tissue culture plate, as described above.
In this example, tissue culture wells containing a second lung cancer tumor organoid line were each exposed to one of the therapies listed above.

Assay [2] has as its system colorectal cancer tumor organoid line. The assay is described as above. Type of assay: cell-based, human. The note with it: caspase 3/7 readout, 10,000 nM dose. How it is done: as §1, §2, §3, §4, §5
In this example, tissue culture wells containing a colorectal cancer tumor organoid line were each exposed to one of the therapies listed above.

Assay [3] has as its system colon cancer tumor organoid line. The assay is described as above. Format: cell-based, human. The following applies: caspase 3/7 readout, 10,000 nM dose. How it is done:
as §1, §2, §3, §4, §5
In this example, tissue culture wells containing a colon cancer tumor organoid line were each exposed to one of the therapies listed above.

In assay [4] the test system is tumor organoid culture line 10524-12001. Put plainly: caspase 3/7 apoptosis assay, olaparib dilution series on tumor organoids. Type of assay: cell-based, human. The following applies: tumor without BRCA1 or BRCA2 mutation. How it is done:
(§6) Tumor biopsies were collected from four individuals: UK1393, 10423-12001, 10524-12001, and 10941-12002. The tumors were genotyped and determined not carry BRCA1 or BRCA2 mutations. As such, according to conventional guidance, the tumors are not indicated for first-line therapy with a PARP inhibitor. In order to test whether these tumors may still be sensitive to PARP inhibitors, despite not carrying a BRCA1 or BRCA2 mutation, tumor organoids were cultured using cells from the biopsied material.
(§7) Briefly, cells within each of the biopsied tumor samples were dissociated and cultured to establish a tumor organoid culture line from the tumor of each individual. Single tumor organoids from the tumor organoid culture lines were collected and plated, individually, into wells of a multiwell plate with culture medium. A series of six concentrations of olaparib, in a 5-fold serial dilution, were established for the tumor organoids derived from each individual, as well as negative controls. After incubation with olaparib, a caspase 3/7 apoptosis assay was performed in each well, to determine the sensitivity of each tumor organoid to the respective concentration of olaparib. Results of the […] dilution series experiments are plotted in FIG. 3.

The test system of assay [5] is tumor organoid culture line UK1393. The assay is described as above. Type of assay: cell-based, human. The following applies: tumor without BRCA1 or BRCA2 mutation. How it is done:
as §6, §7

Assay [6] relates to tumor organoid culture line 10423-12001. The description is as above. Type of assay: cell-based, human. The note with it: tumor without BRCA1 or BRCA2 mutation. On the procedure:
as §6, §7

Assay [7] relates to tumor organoid culture line 10941-12002. The assay is described as above. Type of assay: cell-based, human. The note with it: tumor without BRCA1 or BRCA2 mutation. On the procedure:
as §6, §7

Where [8] appears, read: Homo sapiens, read-out: mean viability for all organoids in the plot.
Setting [9] is: caspase 3/7 readout, 10,000 nM dose.

`CC(=O)O[C@@]12CO[C@@H]1C[C@H](O)[C@@]1(C)C(=O)[C@H](O)C3=C(C)[C@@H](OC(=O)[C@H](O)[C@@H](NC(=O)OC(C)(C)C)c4ccccc4)C[C@@](O)([C@@H](OC(=O)c4ccccc4)[C@H]21)C3(C)C` [Docetaxel]: the viability – broadly, a per cent measure of how many cells are alive, often set against a control – at 10 µM in assay [1] (setting [8]) was about 30%; in assay [2] (setting [8]) it was about 45%; in assay [3] (setting [8]), about 20%. The “organoids of the line that are resistant to the drug” value was “presence of a small proportion” in assay [1] (setting [9]), “presence of organoids” in assay [2] and “general absence” in assay [3]. Besides, the “organoids with 0% viability (susceptible to the drug)” value is recorded as “Approximately 50 organoids” in assay [1] (setting [9]), “Approximately 35 organoids” in assay [2] and “Approximately 70 organoids” in assay [3]. In addition, the “organoids with 100% viability (resistant to the drug)” value in assay [1] (setting [9]) was “Approximately 20 organoids”; in assay [2], “Approximately 30 organoids”; in assay [3], “Approximately 15 organoids”.

With `O=C(c1cc(Cc2n[nH]c(=O)c3ccccc23)ccc1F)N1CCN(C(=O)C2CC2)CC1` [Olaparib], the sensitivity to olaparib entry in assay [4], in assay [6] and in assay [7] was “fairly insensitive” throughout. For the same molecule, in assay [5], the “sensitivity to olaparib compared with the other tumor organoid culture lines” value is listed as “more than 100 fold”.
